The assay has as its system Influenza A virus. In words: microbe, parasite or virus in culture. Conditions: A/Puerto Rico/8/34, MDCK, 48 h.

Each structure is given as a SMILES string.

On to `Cc1[nH]c(=O)[nH]c(=O)c1CCCc1cn(C2OC(CO)C(O)C2O)nn1` (stereo unspecified), for which the IC50 amounted to 68 µM.

In general, IC50 refers to the concentration at which inhibition is half-maximal. The low end stands for inhibition by little substance, the high end for a need for much substance.

These data come from ChEMBL document CHEMBL5505957 (Eur J Med Chem, 2024).
